# Experimental data published in paper PMC10385824, “Antiproliferative and Tubulin-Destabilising Effects of 3-(Prop-1-en-2-yl)azetidin-2-Ones and Related Compounds in MCF-7 and MDA-MB-231 Breast Cancer Cells” (Pharmaceuticals, 2023).
# Where two headings read alike, the source gives them in different places.
# How the values were obtained:
# [1] = tested on: M14; assay: NCI-60 SRB screen, melanoma; type: cell-based, human; settings: Homo sapiens
# [2] = tested on: NCI-H226; assay: NCI-60 SRB screen, non-small cell lung cancer; type: cell-based; settings: Homo sapiens
# [3] = tested on: MOLT-4; assay: NCI-60 SRB screen, leukemia; type: cell-based, human; settings: Homo sapiens
# [4] = tested on: MCF-7 human breast cancer cells; assay: cells
# [5] = tested on: SF539; assay: NCI-60 SRB screen, CNS cancer; type: cell-based, human; settings: Homo sapiens
# [6] = tested on: CAKI-1; assay: NCI-60 SRB screen, renal cancer; type: cell-based, human; settings: Homo sapiens
# [7] = tested on: MDA-MB-468; assay: NCI-60 SRB screen, breast cancer; type: cell-based, human; settings: Homo sapiens
# [8] = tested on: NCI-H332M; assay: NCI-60 SRB screen, non-small cell lung cancer; type: cell-based; settings: Homo sapiens, 48 h
# [9] = tested on: SK-MEL-5; assay: NCI-60 SRB screen, melanoma; type: cell-based, human; settings: Homo sapiens
# [10] = tested on: MALME-3M; assay: NCI-60 SRB screen, melanoma; type: cell-based, human; settings: Homo sapiens, 48 h
# [11] = tested on: SK-MEL-2; assay: NCI-60 SRB screen, melanoma; type: cell-based, human; settings: Homo sapiens
# [12] = tested on: NCI-H23; assay: NCI-60 SRB screen, non-small cell lung cancer; type: cell-based, human; settings: Homo sapiens
# [13] = tested on: OVCAR-8; assay: NCI-60 SRB screen, ovarian cancer; type: cell-based, human; settings: Homo sapiens
# [14] = tested on: ACHN; assay: NCI-60 SRB screen, renal cancer; type: cell-based, human; settings: Homo sapiens, 48 h
# [15] = tested on: DU-145; assay: NCI-60 SRB screen, prostate cancer; type: cell-based, human; settings: Homo sapiens
# [16] = tested on: MDA-MB-231/ATCC; assay: NCI-60 SRB screen, breast cancer; type: cell-based, human; settings: Homo sapiens; for IC50: read-out: Antiproliferative Activity IC50
# [17] = tested on: OVCAR-5; assay: NCI-60 SRB screen, ovarian cancer; type: cell-based, human; settings: Homo sapiens
# [18] = tested on: HL-60(TB); assay: NCI-60 SRB screen, leukemia; type: cell-based, human; settings: Homo sapiens
# [19] = tested on: PC-3; assay: NCI-60 SRB screen, prostate cancer; type: cell-based, human; settings: Homo sapiens
# [20] = tested on: NCI-H460; assay: NCI-60 SRB screen, non-small cell lung cancer; type: cell-based, human; settings: Homo sapiens
# [21] = tested on: SF295; assay: NCI-60 SRB screen, CNS cancer; type: cell-based, human; settings: Homo sapiens
# [22] = tested on: NCI/ADR-RES; assay: NCI-60 SRB screen, ovarian cancer; type: cell-based, human; settings: Homo sapiens, 48 h
# [23] = tested on: SNB-19; assay: NCI-60 SRB screen, CNS cancer; type: cell-based, human; settings: Homo sapiens
# [24] = tested on: SNB-75; assay: NCI-60 SRB screen, CNS cancer; type: cell-based, human; settings: Homo sapiens
# [25] = tested on: TK-10; assay: NCI-60 SRB screen, renal cancer; type: cell-based, human; settings: Homo sapiens
# [26] = tested on: purified bovine brain tubulin; assay: Tubulin polymerization assay (light scattering, BK006 kit); type: biochemical; settings: compound at 10 μM; for Fold Reduction in Vmax: relative to vehicle
# Method in brief: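 Compounds tested at 10 µM against vehicle (1% DMSO or EtOH) with bovine brain tubulin, 3 mg/mL, in pH 6.9 PIPES buffer containing 1 mM GTP and 10% glycerol, 37 °C. Light scattering at 340 nm tracked microtubule formation; average of two independent runs reported.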
# [27] = tested on: UACC-62; assay: NCI-60 SRB screen, melanoma; type: cell-based, human; settings: Homo sapiens
# [28] = tested on: K-562; assay: NCI-60 SRB screen, leukemia; type: cell-based, human; settings: Homo sapiens, K562, 48 h
# [29] = five dose 0.01–100 µM, read-out: GI50
# [30] = HL-60(TB), five dose 0.01–100 µM, 48 h
smiles,measurement,setting,value
"C=CCC1C(=O)N(c2cc(OC)c(OC)c(OC)c2)C1c1ccc(OC)c(O)c1 (stereo not shown) [10p, 4-(3-Hydroxy-4-methoxyphenyl)-1-(3,4,5-trimethoxyphenyl)-3-allylazetidin-2-one]",GI50,"[1]; M14, five dose 0.01–100 µM, 48 h, read-out: GI50",17.6 nM
same,GI50,"[2]; NCI-H226, five dose 0.01–100 µM, 48 h, read-out: GI50",56 nM
same,GI50,"[3]; MOLT-4, five dose 0.01–100 µM, 48 h, read-out: GI50",40.8 nM
same,IC50,"[4]; MCF7, read-out: Antiproliferative Activity IC50, MCF-7, eight concentrations 0.001–50 μM, mean ± SEM, Table 3",31 ± 2 nM
same,GI50,"[5]; SF-539, SF539, five dose 0.01–100 µM, 48 h, read-out: GI50",38.2 nM
same,GI50,"[6]; CAKI-1, five dose 0.01–100 µM, 48 h, read-out: GI50",44 nM
same,GI50,"[7]; MDA-MB-468, five dose 0.01–100 µM, 48 h, read-out: GI50",25 nM
same,GI50,[8]; [29],51.2 nM
same,GI50,"[9]; SK-MEL-5, five dose 0.01–100 µM, 48 h, read-out: GI50",24.9 nM
same,GI50,"[10]; MALME-3M, five dose 0.01–100 µM, read-out: GI50",30.6 nM
same,GI50,"[11]; SK-MEL-2, five dose 0.01–100 µM, 48 h, read-out: GI50",301 nM
same,GI50,"[12]; NCI-H23, five dose 0.01–100 µM, 48 h, read-out: GI50",30.7 nM
same,GI50,"[13]; OVCAR-8, five dose 0.01–100 µM, 48 h, read-out: GI50",34 nM
same,GI50,[14]; [29],53.2 nM
same,GI50,"[15]; DU-145, five dose 0.01–100 µM, 48 h, read-out: GI50",26.6 nM
same,GI50,"[16]; MDA-MB-231/ATCC, five dose 0.01–100 µM, 48 h, read-out: GI50",24 nM
same,IC50,"[16]; MDA-MB-231, obtained from NCI, five concentrations 0.01–100 μM, 48 h",27.4 nM
same,GI50,"[17]; OVCAR-5, five dose 0.01–100 µM, 48 h, read-out: GI50",61.8 nM
same,GI50,[18]; [30],32.3 nM
same,GI50,"[18]; HL-60, NCI screen",< 34 nM
same,GI50,"[19]; PC-3, five dose 0.01–100 µM, 48 h, read-out: GI50",40.3 nM
same,GI50,"[20]; NCI-H460, five dose 0.01–100 µM, 48 h, read-out: GI50",32 nM
same,GI50,"[21]; SF-295, SF295, five dose 0.01–100 µM, 48 h, read-out: GI50",29.1 nM
same,GI50,[22]; [29],20.6 nM
same,GI50,"[23]; SNB-19, five dose 0.01–100 µM, 48 h, read-out: GI50",58.9 nM
same,GI50,"[24]; SNB-75, five dose 0.01–100 µM, 48 h, read-out: GI50",44.8 nM
same,GI50,"[25]; TK-10, five dose 0.01–100 µM, 48 h, read-out: GI50",80.2 nM
same,Fold Reduction in Vmax,[26],4.5
same,GI50,"[27]; UACC-62, five dose 0.01–100 µM, 48 h, read-out: GI50",32 nM
same,GI50,[28]; read-out: GI50,43.1 nM
"C=CC=CC1C(=O)N(c2cc(OC)c(OC)c(OC)c2)C1c1ccc(OC)cc1 (stereo not shown) [11h, 3-(Buta-1,3-dienyl)-4-(4-methoxyphenyl)-1-(3,4,5-trimethoxyphenyl)azetidin-2-one]",GI50,"[1]; M14, 48 h",19.4 nM
same,GI50,"[2]; NCI-H226, 48 h",76.8 nM
same,GI50,"[3]; MOLT-4, 48 h",36.9 nM
same,IC50,"[4]; MCF7, read-out: Antiproliferative Activity IC50",33 ± 5 nM
same,GI50,"[5]; SF-539, 48 h",33.2 nM
same,GI50,"[6]; CAKI-1, 48 h",58.9 nM
same,GI50,"[7]; MDA-MB-468, 48 h",23.3 nM
same,GI50,[8],62.6 nM
same,GI50,"[9]; SK-MEL-5, 48 h",26 nM
same,GI50,[10]; Malme-3M,> 100000 nM
same,GI50,"[11]; SK-MEL-2, 48 h",3250 nM
same,GI50,"[12]; NCI-H23, 48 h",32.1 nM
same,GI50,"[13]; OVCAR-8, 48 h",37.4 nM
same,GI50,[14],60.7 nM
same,GI50,"[15]; DU-145, 48 h",27 nM
same,GI50,"[16]; MDA-MB-231, 48 h",29.6 nM
same,IC50,"[16]; MDA-MB-231, 48 h",31.1 nM
same,GI50,"[17]; OVCAR-5, 48 h",94.8 nM
same,GI50,[18]; [30],33.8 nM
same,GI50,"[18]; HL-60, NCI screen",< 34 nM
same,GI50,"[19]; PC-3, 48 h",40.4 nM
same,GI50,"[20]; NCI-H460, 48 h",33.2 nM
same,GI50,"[21]; SF-295, 48 h",30.9 nM
same,GI50,[22],17.3 nM
same,GI50,"[23]; SNB-19, 48 h",65.4 nM
same,GI50,"[24]; SNB-75, 48 h",30.7 nM
same,GI50,"[25]; TK-10, 48 h",61.7 nM
same,Vmax,"[26]; 37 °C, 340 nm",0.0035 mOD/min
same,Fold Reduction in Vmax,[26],2.9
same,GI50,"[27]; UACC-62, 48 h",26.7 nM
same,GI50,[28],41 nM
